{"source": "patent US4717662A", "about": "(priority 1985, dated 1988)", "key": {"[1]": {"target": "alpha-amylase (Bacillus licheniformis, UniProt P06278)", "sequence (P06278 30-512)": "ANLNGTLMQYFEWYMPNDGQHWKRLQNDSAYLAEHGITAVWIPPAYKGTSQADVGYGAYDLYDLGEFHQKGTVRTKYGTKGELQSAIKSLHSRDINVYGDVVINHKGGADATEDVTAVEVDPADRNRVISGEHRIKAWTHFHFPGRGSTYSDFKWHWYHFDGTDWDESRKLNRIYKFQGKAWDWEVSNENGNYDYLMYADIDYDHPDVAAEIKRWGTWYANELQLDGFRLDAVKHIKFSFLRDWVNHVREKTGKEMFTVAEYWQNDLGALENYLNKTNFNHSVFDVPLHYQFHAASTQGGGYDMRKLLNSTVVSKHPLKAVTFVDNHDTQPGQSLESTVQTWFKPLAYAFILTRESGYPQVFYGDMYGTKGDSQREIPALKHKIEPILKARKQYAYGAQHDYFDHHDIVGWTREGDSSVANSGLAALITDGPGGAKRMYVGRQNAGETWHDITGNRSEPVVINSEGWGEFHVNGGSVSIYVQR", "conditions": "for (-Δ G°) stabilization free energy, R T ln F: 95° C. (T = 368K); for t 1/2: salt added to 1.22 M, diluted 1×100"}, "[2]": {"test_system": "alpha-amylase (Taka-Therm L-170)", "conditions": "pH 5.5", "description": "In a typical run, 70 lbs. of corn starch was suspended in 59 liters of water and the pH adjusted to 5.0 using acetic acid. […] After gelantinization, the starch was flashed into a temperature regulated vessel maintained at 95° C. for continued liquefaction for 2 hours. In another experiment, the liquefaction of starch was carried out at pH 6.3-6.5 (pH adjusted using sodium hydroxide) in the presence of 50 ppm added calcium.\nCalcium chloride was added to a level of 25 ppm (as Ca^++) and the pH adjusted to 5.5 using 10% sodium hydroxide."}, "[3]": {"test_system": "alpha-amylase", "test": "Comparative thermal stability of alpha-amylase with different anions at 90° C.", "format": "biochemical", "conditions": "percent residual activity versus time at 90° C., FIG. 2", "description": "A comparative study was conducted in which the stability of alpha-amylase stabilized with acetate was compared with that containing anions known to have been added to commercially available alpha-amylase solutions. The activity of the various anion containing enzyme solutions was determined as previously described and the percent residual activity plotted as a function of time at 90° C. The results of this study are graphically represented in FIG. 2. The stabilizing effects of the different anions against thermal inactivation of the enzyme followed this order: citrate<sulphate<chloride<acetate."}}, "note": "Read-outs that look alike come from different tables or passages of the source."}
{"molecule": "O=C(O)Cc1ccccc1", "note": "[Phenylacetic acid, phenylacetic acid]", "values": [{"measurement": "Half-Life 95° C., pH 5.8", "setting": "[1]", "result": 7, "unit": "minutes"}, {"measurement": "(-Δ G°) stabilization free energy, R T ln F", "setting": "[1]; pH 5.8", "result": 1.0, "unit": "K cal/mole"}, {"measurement": "t 1/2", "setting": "[1]; 95° C., pH 5.8", "result": 7.0, "unit": "min"}]}
{"molecule": "CCCC(=O)[O-].[Na+]", "note": "[CH3 CH2 CH2 COONa, sodium butyrate]", "values": [{"measurement": "(-Δ G°) stabilization free energy, R T ln F", "setting": "[1]; pH 5.8", "result": 1.5, "unit": "K cal/mole"}, {"measurement": "order of thermal stabilization of the enzyme", "setting": "[1]; 95° C., pH 5.8, aliphatic monocarboxylic acid sodium salts, FIG. 1", "result": "formate<acetate<propionate<butyrate"}, {"measurement": "t 1/2", "setting": "[1]; 95° C., pH 5.8", "result": 13.3, "unit": "min"}, {"measurement": "additional stabilization attributed to the butyl group", "setting": "[1]; relative to formate, 95° C., pH 5.8", "result": "about 0.6 K Cal/mol."}]}
{"molecule": "CC(=O)O", "note": "[Na Acetate, Sodium acetate]", "values": [{"measurement": "DE Progression", "setting": "[2]; Starch slurry containing 0.7 mM of sodium acetate + 25 ppm of added Ca^++, 1/2 hr", "result": 4.15}, {"measurement": "DE Progression", "setting": "[2]; Starch slurry containing 0.7 mM of sodium acetate + 25 ppm of added Ca^++, 11/2 hr", "result": 8.87}, {"measurement": "DE Progression", "setting": "[2]; Starch slurry containing 0.7 mM of sodium acetate + 25 ppm of added Ca^++, 1 hr", "result": 6.11}, {"measurement": "DE Progression", "setting": "[2]; Starch slurry containing 0.7 mM of sodium acetate + 25 ppm of added Ca^++, 2 hr", "result": 10.25}, {"measurement": "DE Progression", "setting": "[2]; Starch slurry containing 0.01 M sodium acetate and 25 ppm of added Ca^++, 1/2 hr", "result": 5.53}, {"measurement": "DE Progression", "setting": "[2]; Starch slurry containing 0.01 M sodium acetate and 25 ppm of added Ca^++, 11/2 hr", "result": 10.82}, {"measurement": "DE Progression", "setting": "[2]; Starch slurry containing 0.01 M sodium acetate and 25 ppm of added Ca^++, 1 hr", "result": 8.64}, {"measurement": "DE Progression", "setting": "[2]; Starch slurry containing 0.01 M sodium acetate and 25 ppm of added Ca^++, 2 hr", "result": 13.01}, {"measurement": "order of stabilizing effects of anions against thermal inactivation of the enzyme", "setting": "[3]", "result": "citrate<sulphate<chloride<acetate"}]}
{"molecule": "O=C(O)CC(O)(CC(=O)O)C(=O)O", "note": "[citrate]", "values": [{"measurement": "order of stabilizing effects of anions against thermal inactivation of the enzyme", "setting": "[3]", "result": "citrate<sulphate<chloride<acetate"}]}
{"molecule": "O=C(O)C(c1ccccc1)c1ccccc1", "note": "[Diphenylacetic, diphenylacetic acid]", "values": [{"measurement": "Half-Life 95° C., pH 5.8", "setting": "[1]", "result": 15, "unit": "minutes"}, {"measurement": "(-Δ G°) stabilization free energy, R T ln F", "setting": "[1]; pH 5.8", "result": 1.5, "unit": "K cal/mole"}, {"measurement": "relative stabilizing effect in words", "setting": "[1]; 95° C., pH 5.8, comparison among acids tested", "result": "the most"}, {"measurement": "t 1/2", "setting": "[1]; 95° C., pH 5.8", "result": 15.0, "unit": "min"}]}
{"molecule": "Cl", "note": "[chloride]", "values": [{"measurement": "order of stabilizing effects of anions against thermal inactivation of the enzyme", "setting": "[3]", "result": "citrate<sulphate<chloride<acetate"}]}
{"molecule": "O=S(=O)(O)O", "note": "[sulphate]", "values": [{"measurement": "order of stabilizing effects of anions against thermal inactivation of the enzyme", "setting": "[3]", "result": "citrate<sulphate<chloride<acetate"}]}
